Experimental findings from PubChem BioAssay (NCI) are described below.

Among the test systems are LXFL 529 NSCLC; SNB-78 CNS; MDA-N; HOP-18 NSCLC; DLD-1 colon; DMS 114 small cell lung; KM20L2 colon; RXF-631 renal.
Assay in all cases: NCI anticancer screen, dose series, 48 h

Values joined by “and” are separate entries in the source; they are usually repeats but may differ in a detail not shown here. Identical values can stand only once.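 Values below derive from 48-hour exposures of cells grown in 96-well plates, with endpoints linearly interpolated between the two concentrations bracketing the appropriate inhibition level. GI50 marks 50% less growth. TGI marks complete inhibition of growth.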

For `CN(C)CCNc1ccc(CO)c2sc3ccc(O)cc3c(=O)c12`, the TGI with LXFL 529 NSCLC is 19 µM; in the test with SNB-78 CNS it was above 45.6 µM; in the test with MDA-N, 3.7 µM; with HOP-18 NSCLC, 29.6 µM; in the test with DLD-1 colon it was 18.6 µM; in the test with DMS 114 small cell lung, 16.5 µM. The TGI in the test with KM20L2 colon was 22.7 µM.
`N/N=C1\C(=O)N(C2CCCCCC2)C(=O)C1C(=O)NC1CCCCCC1` (stereo unspecified): the TGI in the test on LXFL 529 NSCLC was 78.3 µM; with SNB-78 CNS, 77.3 µM; in the test with HOP-18 NSCLC it was 91.4 µM; in the test on DLD-1 colon, above 100 µM; in the test with KM20L2 colon it was 38.1 µM.
In the case of `O=C(CCC(=O)Nc1ccc(Cl)c(Cl)c1)CC(=O)c1ccc(Br)cc1`, the TGI in the test with LXFL 529 NSCLC, with SNB-78 CNS, in the test on RXF-631 renal, in the test with HOP-18 NSCLC, in the test on DLD-1 colon and in the test with DMS 114 small cell lung was above 100 µM each time. Moreover, in the test with KM20L2 colon, the TGI is above 100 µM.
In the case of `C=C1C(=O)OC2C/C(C)=C/CC/C(C)=C/CCC3(COC(C)=O)OC3CC12` (stereo unspecified), the TGI worked out at 8.1 µM in the test with LXFL 529 NSCLC; 30.3 µM with SNB-78 CNS; 23.3 µM in the test on HOP-18 NSCLC; 14.4 µM in the test with DLD-1 colon; 14.6 µM with DMS 114 small cell lung; 19.9 µM in the test on KM20L2 colon.
As to `Cc1nn[n-]n1.N.N.N.N.N.[Cl-].[Co+3]`, the GI50 in the test with LXFL 529 NSCLC, with SNB-78 CNS, in the test with HOP-18 NSCLC, in the test on DLD-1 colon and in the test on KM20L2 colon was above 100 µM each time. The TGI in the test on LXFL 529 NSCLC, in the test with SNB-78 CNS, in the test on HOP-18 NSCLC, in the test with DLD-1 colon and with KM20L2 colon was above 100 µM each time.
For the compound `CCN(CC)CCCNc1ccc2nc(C)n3c4ccc(O)cc4c(=O)c1c23`, the TGI with LXFL 529 NSCLC was found to be 19.3 µM; in the test with SNB-78 CNS, 19.6 µM; in the test with MDA-N, 20.6 µM; with RXF-631 renal, 17.4 µM; with HOP-18 NSCLC, 25.7 µM; with DLD-1 colon it was 16.2 µM. The TGI turned out to be 21.5 µM in the test on DMS 114 small cell lung and 17.1 µM with KM20L2 colon.
For the compound `CC[n+]1oc(C(=O)c2ccc(Cl)cc2)c(-c2ccccc2)c1-c1ccccc1.[Cl][Fe]([Cl])([Cl])[Cl]`, in the test with MDA-N, the GI50 was 28.7 µM and the TGI was above 100 µM.
Turning to `Cc1[nH]nc(C(F)(F)F)c1N=NN(C)C`, the TGI in the test on MDA-N was above 100 µM.
Consider `CC(C)(C)c1cc(C(O)(C(F)(F)F)C(F)(F)F)c2c(c1)C(C(F)(F)F)(C(F)(F)F)OC(C)(C(C)(C)C)N2` (stereo unspecified), for which the TGI in the test with LXFL 529 NSCLC was 14.1 µM; in the test on SNB-78 CNS, 99 µM; in the test on DLD-1 colon it was above 100 µM; with DMS 114 small cell lung, 8.64 µM; in the test on KM20L2 colon, above 100 µM.
In turn, `COc1cc(C2SCCCCCCCCCCSC(c3ccc(O)c(OC)c3)SCCCCCCCCCCS2)ccc1O` (stereo unspecified) returned a TGI in the test with MDA-N above 100 µM.
For `COC(=O)/C=C(C)/C=C/C1OC(C)OCC1O` (stereo unspecified), the TGI with LXFL 529 NSCLC, in the test with SNB-78 CNS, in the test on DLD-1 colon, with DMS 114 small cell lung and with KM20L2 colon was above 100 µM each time.
On to `N#CN/C(N)=N/C/N=C(\N)NC#N`, for which the TGI with LXFL 529 NSCLC, with SNB-78 CNS, with RXF-631 renal, with HOP-18 NSCLC, with DLD-1 colon and in the test on DMS 114 small cell lung was above 100 µM throughout. The compound further gave a TGI in the test on KM20L2 colon above 100 µM.
`NC(=O)N/N=C(/CC1C(=O)Oc2ccccc21)c1ccccc1O` (stereo unspecified): the TGI with MDA-N is above 100 µM.
As to `CC1CCC2(NC1)OC1CC3C4CC=C5CC(O)CCC5(C)C4CCC3(C)C1C2C` (stereo unspecified), in the test with MDA-N, the GI50 was 31.1 µM and 12.2 µM; the TGI was above 100 µM.
`CCNC(=O)COc1ccc(Br)cc1Br`: the TGI in the test with LXFL 529 NSCLC, in the test with SNB-78 CNS, in the test on RXF-631 renal, in the test on HOP-18 NSCLC, in the test on DLD-1 colon and in the test with DMS 114 small cell lung was above 100 µM in each case. In the test on KM20L2 colon, this compound showed a TGI above 100 µM.
With `CC(=O)N/N=C1\CC(C)(C)C2CCC1C2` (stereo unspecified), the TGI in the test on LXFL 529 NSCLC, in the test on SNB-78 CNS and in the test with DMS 114 small cell lung was above 100 µM throughout.
As for `CCC1CC2C(=O)N(c3ccccc3)C(=O)C2c2[nH]c3ccccc3c21` (stereo unspecified), the TGI in the test on LXFL 529 NSCLC is 70.4 µM; with SNB-78 CNS, 75.1 µM; in the test on RXF-631 renal, 29.4 µM; in the test with HOP-18 NSCLC, 45.8 µM; with DLD-1 colon, above 100 µM; in the test with DMS 114 small cell lung, 35.7 µM.
In the case of `CC1=CC(=O)CC2(C)CC[C@@H]3C[C@]12OC3(C)C` (stereo partly specified), the TGI in the test on LXFL 529 NSCLC, in the test on SNB-78 CNS, with HOP-18 NSCLC, in the test on DLD-1 colon, in the test on DMS 114 small cell lung and in the test with KM20L2 colon was above 100 µM in each case.
As to `COc1ccc(OC)c(NC(=O)CCC/C(CC(=O)c2ccc(O)c(OC)c2)=N\Nc2nnc(C)n2N)c1`, the TGI with LXFL 529 NSCLC, with HOP-18 NSCLC, with DLD-1 colon, in the test with DMS 114 small cell lung and in the test on KM20L2 colon was above 100 µM throughout.
In the case of `COC/C=C\COC`, the TGI in the test on LXFL 529 NSCLC, in the test on SNB-78 CNS, in the test on RXF-631 renal, with HOP-18 NSCLC, in the test with DLD-1 colon and with DMS 114 small cell lung was above 100 µM each time. The same compound gave a TGI in the test with KM20L2 colon above 100 µM.
